Data from ChEMBL document CHEMBL1201862, “PubChem BioAssay data set” (2004).
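Method: 48-hour compound exposure of cells in 96-well plates, five concentrations, linear interpolation of endpoints. GI50 is the concentration that inhibits growth by half.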 The source made the active and inactive calls. Cut-off read from the data, not from the text of the source: active = GI50 up to about 1.1 µM and inactive = higher.

Tests used:
Experiment in all cases: NCI-60 cell line screen, 48 h
RXF 393 = system: RXF 393
SK-MEL-28 = system: SK-MEL-28
K562 = system: K562
HT-29 = system: HT-29
DMS-273 = system: DMS-273
NCI-H460 = system: NCI-H460
SW-620 = system: SW-620
KM-20L2 = system: KM-20L2
LXFL 529 = system: LXFL 529
U-251 = system: U-251
HCT-15 = system: HCT-15
UO-31 = system: UO-31
DMS-114 = system: DMS-114
HCT-116 = system: HCT-116
CCRF-CEM = system: CCRF-CEM
786-0 = system: 786-0
SK-OV-3 = system: SK-OV-3
T47D = system: T47D
MDA-MB-231 = system: MDA-MB-231
BT-549 = system: BT-549

Compound	GI50 (RXF 393)	GI50 (SK-MEL-28)	GI50 (K562)	GI50 (HT-29)	GI50 (DMS-273)	GI50 (NCI-H460)	GI50 (SW-620)	GI50 (KM-20L2)	GI50 (LXFL 529)	GI50 (U-251)	GI50 (HCT-15) [µM]	GI50 (UO-31)	GI50 (DMS-114)	GI50 (HCT-116)	GI50 (CCRF-CEM)	GI50 (786-0)	GI50 (SK-OV-3)	GI50 (T47D)	GI50 (MDA-MB-231)	GI50 (BT-549)
COc1cc(C=C2C(=O)NC(=O)NC2=O)cc(OC)c1OC	> 100 µM (inactive)	> 100 µM (inactive)	> 100 µM (inactive)	> 100 µM (inactive)	> 100 µM (inactive)	> 100 µM (inactive)	> 100 µM (inactive)	> 100 µM (inactive)	> 100 µM (inactive)	> 100 µM (inactive)	> 100	> 100 µM (inactive)	> 100 µM (inactive)	> 100 µM (inactive)	> 100 µM (inactive)	> 100 µM (inactive)	> 100 µM (inactive)			
CCOC(=O)C12CN(C34CC5CC(CC(C5)C3)C4)CC(C(=O)OCC)(C1=O)C(c1ccccc1)OC2c1ccccc1 (configuration not stated)	19.4 µM (inactive)	> 100 µM (inactive)	31.4 µM (inactive)	61 µM (inactive)	> 100 µM (inactive)	> 100 µM (inactive)	> 100 µM (inactive)	> 100 µM (inactive)	31.3 µM (inactive)	> 100 µM (inactive)	> 100	> 100 µM (inactive)	52.2 µM (inactive)	> 10 µM (inactive)	44.3 µM (inactive)	> 100 µM (inactive)	> 100 µM (inactive)			
C[C@H](O)CCC(=O)c1ccoc1	> 100 µM (inactive)	> 100 µM (inactive)	> 100 µM (inactive)	> 100 µM (inactive)	> 100 µM (inactive)	> 100 µM (inactive)	> 100 µM (inactive)	> 100 µM (inactive)	> 100 µM (inactive)	> 100 µM (inactive)	> 100	> 100 µM (inactive)	> 100 µM (inactive)	> 100 µM (inactive)	> 100 µM (inactive)	> 100 µM (inactive)	> 100 µM (inactive)			
CN(C)CCCN1CCc2c([nH]c3ccccc23)C1c1cccnc1 (configuration not stated)	> 100 µM (inactive)	80 µM (inactive)	> 100 µM (inactive)	> 100 µM (inactive)	> 100 µM (inactive)	> 100 µM (inactive)	> 100 µM (inactive)	> 100 µM (inactive)	> 100 µM (inactive)	> 100 µM (inactive)	> 100	> 100 µM (inactive)	> 100 µM (inactive)	> 100 µM (inactive)	> 100 µM (inactive)	> 100 µM (inactive)	> 100 µM (inactive)			
NC(=S)N1N=C2c3ccccc3CC[C@@H]2[C@@H]1c1ccccc1	4.95 µM (inactive)	9.84 µM (inactive)	2 µM (inactive)	3.15 µM (inactive)	2.19 µM (inactive)	5.42 µM (inactive)	3.84 µM (inactive)	4.22 µM (inactive)	8.18 µM (inactive)	3.98 µM (inactive)	3.33	14.2 µM (inactive)	2.45 µM (inactive)	5.48 µM (inactive)	3.24 µM (inactive)	6.89 µM (inactive)	9.73 µM (inactive)			
CC(=O)OCCOCBr	> 100 µM (inactive)	> 100 µM (inactive)	> 100 µM (inactive)	> 100 µM (inactive)	> 100 µM (inactive)	> 100 µM (inactive)	> 100 µM (inactive)	> 100 µM (inactive)	> 100 µM (inactive)	> 100 µM (inactive)	> 100	> 100 µM (inactive)	> 100 µM (inactive)	> 100 µM (inactive)	> 100 µM (inactive)	> 100 µM (inactive)	> 100 µM (inactive)			
CC(=O)OCCC(O[Si](c1ccccc1)(c1ccccc1)C(C)(C)C)C(C)(C)O (configuration not stated)	17.6 µM (inactive)	51.2 µM (inactive)	31.6 µM (inactive)	27.4 µM (inactive)	27 µM (inactive)	32.1 µM (inactive)	54.8 µM (inactive)	32.3 µM (inactive)	42.7 µM (inactive)	36.3 µM (inactive)	31.1	22.1 µM (inactive)	19.9 µM (inactive)	17.3 µM (inactive)	24.6 µM (inactive)	27.4 µM (inactive)	42.7 µM (inactive)			
COC(=O)c1nc(NC#N)nc(O)c1C	> 100 µM (inactive)	> 100 µM (inactive)	34.9 µM (inactive)	> 100 µM (inactive)	> 69.3 µM (inactive)	> 100 µM (inactive)	> 100 µM (inactive)	> 100 µM (inactive)	> 64.9 µM (inactive)	> 85.7 µM (inactive)	> 87.3	> 51.8 µM (inactive)	> 100 µM (inactive)	> 61.1 µM (inactive)	78 µM (inactive)	> 100 µM (inactive)	> 100 µM (inactive)			
CC(C)(C)CC(C)(C)NCC(O)COc1ccc(C(C)(C)c2ccc(OCC(O)CNC(C)(C)CC(C)(C)C)cc2)cc1 (configuration not stated)	1.82 µM (inactive)	0.615 µM (active)	0.244 µM (active)	0.403 µM (active)	1.04 µM (active)	0.46 µM (active)	0.213 µM (active)	1.47 µM (inactive)	0.357 µM (active)	0.7 µM (active)	1.37	1.61 µM (inactive)	1.76 µM (inactive)	2.37 µM (inactive)	0.356 µM (active)	1.06 µM (active)	1.77 µM (inactive)			
C=C(CN(C)C)C(=O)c1ccccc1Cl	15.4 µM (inactive)	7.59 µM (inactive)	13.1 µM (inactive)	19.1 µM (inactive)	19.6 µM (inactive)	52.8 µM (inactive)	13.3 µM (inactive)	30.1 µM (inactive)	12.5 µM (inactive)	52.1 µM (inactive)	17.3	18.9 µM (inactive)	15.9 µM (inactive)	18.4 µM (inactive)	5.7 µM (inactive)	19.9 µM (inactive)	> 100 µM (inactive)			
O=C(Nc1ccccc1-c1nn(C(=S)Nc2ccccc2)c(=S)n(C(=S)Nc2ccccc2)c1=O)C(F)(F)F	34 µM (inactive)	27.6 µM (inactive)	18.8 µM (inactive)	27.7 µM (inactive)	27.4 µM (inactive)	21.3 µM (inactive)	23.9 µM (inactive)	36.2 µM (inactive)	17.1 µM (inactive)	25.6 µM (inactive)	20.1	11.9 µM (inactive)	9.38 µM (inactive)	16.6 µM (inactive)	13.3 µM (inactive)	32.1 µM (inactive)	> 87.3 µM (inactive)			
CC(=O)OC1CC[C@@]2(C)C(CC[C@]3(C)C2CC=C2[C@@H]4C(C)[C@H](C)CCC4(C)CCC23C)[C@@]1(C)C(=O)O (some centres not stated)	21.7 µM (inactive)	23.7 µM (inactive)	25.9 µM (inactive)	21.2 µM (inactive)	21.2 µM (inactive)	23.5 µM (inactive)	21.9 µM (inactive)	16.2 µM (inactive)	17.3 µM (inactive)	22 µM (inactive)	17.6	20.7 µM (inactive)	18.4 µM (inactive)	16.4 µM (inactive)	24.9 µM (inactive)	23.2 µM (inactive)	18.4 µM (inactive)	17.9 µM (inactive)	20.9 µM (inactive)	25 µM (inactive)
